Tested on: K24384-001-R-PDC complex spheroids, viability
Assay: Anticancer human tumor K24384-001-R-PDC patient-derived pancreatic adenocarcinoma cell line growth inhibition [GQUAD]
Conditions: for IC50: curve of first compound; for viability, T/C: stronger effect = lower value
Excerpt: DNA G-quadruplex Stabilizer Agents in Combinations in Complex Spheroids
A high-throughput screen of multi-cell type tumor spheroids was designed to identify active combinations of DNA G-quadruplex stabilizer agents and targeted small molecules. Complex spheroids include a stromal component modeled by human endothelial cells (HUVEC) and fibroblasts modeled by human mesenchymal stem cells (MSCs). The concentration ranges selected for each drug and investigational agent were based upon clinically achievable concentrations if the clinical Cmax of the agent was known.
Compounds. The drugs and investigational agents: pidnarulex (CX-5461; NSC782164), APTO-253 (NSC789042), BRACO-19 (NSC847499), peposertib (NSC802822), ceralasertib (NSC780249), elimusertib (NSC800525), camonsertib (NSC841442), AZD-1390 (NSC803789), olaparib (NSC753686), talazoparib (NSC767125), ART-558 (NSC835418), sotorasib (NSC818433), MRTX-1133 (NSC836407), SN-38 (NSC673596), topotecan (NSC609699), etoposide (NSC141540), doxorubicin (NSC123127), gemcitabine (NSC613327), 5-fluorouracil (NSC19893), paclitaxel (NSC125973), vemurafenib (NSC761431), panobinostat (NSC761190), R-306465 (JNJ-16241199; NSC773264), adavosertib (NSC754352), TP-3654 (NSC805149), carboplatin (NSC241240), KSQ-4279 (NSC840948), and staurosporine (NSC755774) were obtained from the National Cancer Institute (NCI) Developmental Therapeutics Program Chemical Repository (34). The FDA-approved anticancer drug set is available from the NCI Developmental Therapeutics Program. […] The stock solutions were prepared in dimethyl sulfoxide (DMSO, Sigma-Aldrich, St. Louis, MO, cat. D2650) at 800-fold the tested concentration and stored at -70 degrees C prior to their use. All drugs and investigational agents were tested over a range starting from a high concentration at or near the clinical Cmax and decreasing in half-log increments. If the clinical Cmax for an agent had not been determined, the highest concentration tested was 10 microM.
2.3 Cell Culture. All cells were maintained in an incubator at 37 degrees C and 5% CO2 with 95% humidity. The PDC lines were cultured according to standard operating procedures established by the NCI PDMR. All PDCs were thawed and cultured in Matrigel-coated flasks prepared with a working solution of 1X Ham's F-12 nutrient mix, without supplementation (Invitrogen, cat. 11765054), 100 U/mL penicillin-streptomycin (Invitrogen, cat. 15140122), and 2.5% Matrigel (Corning Inc., cat. 354248) for the first three passages. The 857933-349-R-J2-PDC line was cultured in 6C/Colon 1B media, which includes advanced DMEM/F-12 (Thermo Fisher Scientific, cat. 12634028), 10 mM HEPES (Thermo Fisher Scientific, cat. 15630080), 1X GlutaMAX supplement (Thermo Fisher Scientific, cat. 35050061), 0.1 mg/mL primocin (InvivoGen, cat. ant-pm-2), 10% defined fetal bovine serum, heat inactivated (HyClone Laboratories Inc., cat. SH30070.03HI), 50% L-WRN conditioned media (ATCC, cat. CRL-3276), 1.25 mM N-Acetyl-L-cysteine (Sigma-Aldrich, cat. A9165), 10 mM nicotinamide (Sigma-Aldrich, cat. N0636), 1X B-27 supplement (Thermo Fisher Scientific, cat. 17504044), 1X N-2 supplement (Thermo Fisher Scientific, cat. 17502048), 10 microM Y-27632 dihydrochloride (Tocris Bioscience, cat. 1254), and 50 ng/mL human EGF recombinant protein (Thermo Fisher Scientific, cat. PHG0311). The 485176-168-R4-J1-PDC line was cultured in Panc media, which includes all 6C/Colon 1B media components plus 100 ng/mL human FGF-10 (Thermo Fisher Scientific, cat. 100-26), 500 nM SB-431542 (Selleckchem, cat. S1067), and gastrin (Tocris, cat. 3006).
[…]

[1] = second compound 0.0316 µM, first compound 0.0316 µM
[2] = second compound 0.0316 µM, first compound 0.316 µM
[3] = second compound 0.1 µM, first compound 0.0316 µM
[4] = second compound 0.1 µM, first compound 0.316 µM
[5] = second compound 0.316 µM, first compound 0.0316 µM
[6] = second compound 0.316 µM, first compound 0.316 µM
[7] = second compound 1 µM, first compound 0.0316 µM
[8] = second compound 1 µM, first compound 0.316 µM
[9] = second compound 3.16 µM, first compound 0.0316 µM
[10] = second compound 3.16 µM, first compound 0.316 µM
[11] = second compound 10 µM, first compound 0.0316 µM
[12] = second compound 10 µM, first compound 0.316 µM
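Further: spheroids exposed to compounds for seven days.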

Work on Cc1[nH]c2ccccc2c1CCNCc1ccc(/C=C/C(=O)NO)cc1 + Cc1[nH]c2ccc(F)cc2c1-c1nc2c3cccnc3c3ncccc3c2[nH]1 yielded an IC50 (second compound 0.0316 µM) of 139 nM, an IC50 (second compound 0.1 µM) of 138 nM and an IC50 (second compound 0.316 µM) of 121 nM. It also gave an IC50 (second compound 1 µM) of 124 nM, an IC50 (second compound 3.16 µM) of 128 nM and an IC50 (second compound 10 µM) of 134 nM. It also gave a viability, T/C (second compound 0.0316 µM, first compound 0.000999 µM) of 103%, a viability, T/C (second compound 0.0316 µM, first compound 0.00316 µM) of 111% and a viability, T/C (second compound 0.0316 µM, first compound 0.00999 µM) of 119%. The viability, T/C [1] was 103%, the viability, T/C (second compound 0.0316 µM, first compound 0.0999 µM) was 67.9% and the viability, T/C [2] was 5.6%. For the same molecule, the viability, T/C (second compound 0.1 µM, first compound 0.000999 µM) was 99.1%, the viability, T/C (second compound 0.1 µM, first compound 0.00316 µM) was 95.2% and the viability, T/C (second compound 0.1 µM, first compound 0.00999 µM) was 98.7%. The viability, T/C [3] was 99.6%, the viability, T/C (second compound 0.1 µM, first compound 0.0999 µM) was 66.7% and the viability, T/C [4] was 7.11%. For the same molecule, the viability, T/C (second compound 0.316 µM, first compound 0.000999 µM) was 95%, the viability, T/C (second compound 0.316 µM, first compound 0.00316 µM) was 92.9% and the viability, T/C (second compound 0.316 µM, first compound 0.00999 µM) was 101%. For the same molecule, the viability, T/C [5] was 103%, the viability, T/C (second compound 0.316 µM, first compound 0.0999 µM) was 58.6% and the viability, T/C [6] was 5.93%. The viability, T/C (second compound 1 µM, first compound 0.000999 µM) was 91.3%, the viability, T/C (second compound 1 µM, first compound 0.00316 µM) was 91.8% and the viability, T/C (second compound 1 µM, first compound 0.00999 µM) was 124%. It also gave a viability, T/C [7] of 118%, a viability, T/C (second compound 1 µM, first compound 0.0999 µM) of 60.1% and a viability, T/C [8] of 7.14%. The viability, T/C (second compound 3.16 µM, first compound 0.000999 µM) was 81.3%, the viability, T/C (second compound 3.16 µM, first compound 0.00316 µM) was 87.7% and the viability, T/C (second compound 3.16 µM, first compound 0.00999 µM) was 77.3%. For the same molecule, the viability, T/C [9] was 94.4%, the viability, T/C (second compound 3.16 µM, first compound 0.0999 µM) was 61.1% and the viability, T/C [10] was 8.67%. The viability, T/C (second compound 10 µM, first compound 0.000999 µM) was 77.2%, the viability, T/C (second compound 10 µM, first compound 0.00316 µM) was 72.9% and the viability, T/C (second compound 10 µM, first compound 0.00999 µM) was 77.2%. The viability, T/C [11] was 118%, the viability, T/C (second compound 10 µM, first compound 0.0999 µM) was 65.4% and the viability, T/C [12] was 5.58%.

Work on COc1ncnc(C2CC2)c1-c1ncc2cnn(Cc3ccc(-c4nc(C(F)(F)F)cn4C(C)C)cc3)c2n1 + Cc1[nH]c2ccc(F)cc2c1-c1nc2c3cccnc3c3ncccc3c2[nH]1 yielded an IC50 (second compound 0.0316 µM) of over 10000 nM, an IC50 (second compound 0.1 µM) of over 10000 nM and an IC50 (second compound 0.316 µM) of over 10000 nM. The IC50 (second compound 1 µM) was over 10000 nM, the IC50 (second compound 3.16 µM) was over 10000 nM and the IC50 (second compound 10 µM) was over 10000 nM. For the same molecule, the viability, T/C [1] was 106%, the viability, T/C (second compound 0.0316 µM, first compound 0.1 µM) was 109% and the viability, T/C [2] was 122%. It also gave a viability, T/C (second compound 0.0316 µM, first compound 1 µM) of 97.5%, a viability, T/C (second compound 0.0316 µM, first compound 3.16 µM) of 104% and a viability, T/C (second compound 0.0316 µM, first compound 10 µM) of 128%. For the same molecule, the viability, T/C [3] was 98.4%, the viability, T/C (second compound 0.1 µM, first compound 0.1 µM) was 98.7% and the viability, T/C [4] was 103%. For the same molecule, the viability, T/C (second compound 0.1 µM, first compound 1 µM) was 85.5%, the viability, T/C (second compound 0.1 µM, first compound 3.16 µM) was 122% and the viability, T/C (second compound 0.1 µM, first compound 10 µM) was 134%. It also gave a viability, T/C [5] of 90.8%, a viability, T/C (second compound 0.316 µM, first compound 0.1 µM) of 107% and a viability, T/C [6] of 107%. It also gave a viability, T/C (second compound 0.316 µM, first compound 1 µM) of 95.6%, a viability, T/C (second compound 0.316 µM, first compound 3.16 µM) of 96.7% and a viability, T/C (second compound 0.316 µM, first compound 10 µM) of 118%. The viability, T/C [7] was 86.3%, the viability, T/C (second compound 1 µM, first compound 0.1 µM) was 96.8% and the viability, T/C [8] was 95.8%. For the same molecule, the viability, T/C (second compound 1 µM, first compound 1 µM) was 104%, the viability, T/C (second compound 1 µM, first compound 3.16 µM) was 95.2% and the viability, T/C (second compound 1 µM, first compound 10 µM) was 95.7%. The viability, T/C [9] was 81.8%, the viability, T/C (second compound 3.16 µM, first compound 0.1 µM) was 89.3% and the viability, T/C [10] was 73.2%. The viability, T/C (second compound 3.16 µM, first compound 1 µM) was 88.7%, the viability, T/C (second compound 3.16 µM, first compound 3.16 µM) was 95.1% and the viability, T/C (second compound 3.16 µM, first compound 10 µM) was 84.1%. For the same molecule, the viability, T/C [11] was 72.5%, the viability, T/C (second compound 10 µM, first compound 0.1 µM) was 102% and the viability, T/C [12] was 64.3%. It also gave a viability, T/C (second compound 10 µM, first compound 1 µM) of 73.1%, a viability, T/C (second compound 10 µM, first compound 3.16 µM) of 96.1% and a viability, T/C (second compound 10 µM, first compound 10 µM) of 75.5%.
